Experiment [1] has as its target T1, Alpha-2B adrenergic receptor (Homo sapiens, UniProt P18089).
T1 sequence (P18089 whole entry): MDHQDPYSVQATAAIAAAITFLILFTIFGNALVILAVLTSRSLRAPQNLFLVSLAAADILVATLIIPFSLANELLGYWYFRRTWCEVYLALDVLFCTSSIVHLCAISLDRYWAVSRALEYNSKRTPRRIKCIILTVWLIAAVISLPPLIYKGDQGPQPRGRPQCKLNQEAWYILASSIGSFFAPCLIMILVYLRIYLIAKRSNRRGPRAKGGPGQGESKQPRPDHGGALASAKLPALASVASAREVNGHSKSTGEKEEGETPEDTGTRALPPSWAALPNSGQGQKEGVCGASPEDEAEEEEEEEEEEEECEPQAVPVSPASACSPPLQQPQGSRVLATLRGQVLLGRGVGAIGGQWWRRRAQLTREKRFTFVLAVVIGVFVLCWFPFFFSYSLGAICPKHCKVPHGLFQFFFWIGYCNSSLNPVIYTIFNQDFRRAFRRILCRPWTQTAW

Experiment [2] deals with T2, Alpha-2C adrenergic receptor (Homo sapiens, UniProt P18825).
T2 sequence (P18825 whole entry): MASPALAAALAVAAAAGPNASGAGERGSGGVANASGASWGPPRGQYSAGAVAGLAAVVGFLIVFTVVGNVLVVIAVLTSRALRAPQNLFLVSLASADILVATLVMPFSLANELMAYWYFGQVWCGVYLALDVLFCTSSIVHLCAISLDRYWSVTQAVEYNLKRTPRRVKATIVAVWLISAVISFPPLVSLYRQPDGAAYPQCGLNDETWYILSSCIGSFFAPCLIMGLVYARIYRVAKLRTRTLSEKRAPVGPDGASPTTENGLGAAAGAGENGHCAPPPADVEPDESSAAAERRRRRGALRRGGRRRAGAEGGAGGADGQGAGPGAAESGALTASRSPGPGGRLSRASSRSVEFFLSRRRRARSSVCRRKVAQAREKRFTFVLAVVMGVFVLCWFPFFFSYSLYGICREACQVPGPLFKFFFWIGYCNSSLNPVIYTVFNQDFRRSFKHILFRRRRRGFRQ
In kind it is functional.

Experiment [3] addresses T3, Cholecystokinin receptor type A (Homo sapiens, UniProt P32238).
T3 sequence (P32238 whole entry): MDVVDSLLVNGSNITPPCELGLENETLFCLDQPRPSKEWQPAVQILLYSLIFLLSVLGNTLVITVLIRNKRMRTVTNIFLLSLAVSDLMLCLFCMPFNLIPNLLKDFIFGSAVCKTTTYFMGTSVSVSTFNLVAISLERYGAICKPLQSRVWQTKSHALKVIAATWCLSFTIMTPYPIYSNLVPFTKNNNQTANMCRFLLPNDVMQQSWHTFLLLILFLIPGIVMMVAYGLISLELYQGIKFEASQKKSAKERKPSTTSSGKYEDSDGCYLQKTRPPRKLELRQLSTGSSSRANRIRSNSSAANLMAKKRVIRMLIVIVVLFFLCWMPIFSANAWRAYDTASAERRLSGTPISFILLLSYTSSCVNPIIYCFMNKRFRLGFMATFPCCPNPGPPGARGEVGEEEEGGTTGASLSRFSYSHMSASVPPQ

The target in the next experiment is Cannabinoid receptor 1 (Homo sapiens, UniProt P21554). In kind it is functional, cell-based.
The target of experiment [4] is 5-hydroxytryptamine receptor 2B (Homo sapiens, UniProt P41595). In kind it is functional, cell-based.
The target in experiment [5] is T4, 5-hydroxytryptamine receptor 3A (Homo sapiens, UniProt P46098).
T4 sequence (P46098 whole entry): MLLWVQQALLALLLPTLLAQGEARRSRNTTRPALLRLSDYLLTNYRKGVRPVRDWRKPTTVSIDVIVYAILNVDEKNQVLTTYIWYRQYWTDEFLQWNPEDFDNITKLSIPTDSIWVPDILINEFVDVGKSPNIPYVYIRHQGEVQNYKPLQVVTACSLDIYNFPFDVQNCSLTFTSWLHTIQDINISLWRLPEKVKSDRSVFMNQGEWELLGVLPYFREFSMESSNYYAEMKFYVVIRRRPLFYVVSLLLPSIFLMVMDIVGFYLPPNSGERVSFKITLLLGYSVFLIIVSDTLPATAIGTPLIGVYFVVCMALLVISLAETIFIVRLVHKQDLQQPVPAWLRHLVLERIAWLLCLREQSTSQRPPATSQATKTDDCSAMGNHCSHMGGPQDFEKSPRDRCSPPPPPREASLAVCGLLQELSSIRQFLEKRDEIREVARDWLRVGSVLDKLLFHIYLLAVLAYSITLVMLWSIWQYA
In kind it is functional.

In the next experiment the target is Motilin receptor (Homo sapiens, UniProt O43193).
Experiment [6] has as its target T5, Equilibrative nucleoside transporter 1 (Homo sapiens, UniProt Q99808).
T5 sequence (Q99808 whole entry): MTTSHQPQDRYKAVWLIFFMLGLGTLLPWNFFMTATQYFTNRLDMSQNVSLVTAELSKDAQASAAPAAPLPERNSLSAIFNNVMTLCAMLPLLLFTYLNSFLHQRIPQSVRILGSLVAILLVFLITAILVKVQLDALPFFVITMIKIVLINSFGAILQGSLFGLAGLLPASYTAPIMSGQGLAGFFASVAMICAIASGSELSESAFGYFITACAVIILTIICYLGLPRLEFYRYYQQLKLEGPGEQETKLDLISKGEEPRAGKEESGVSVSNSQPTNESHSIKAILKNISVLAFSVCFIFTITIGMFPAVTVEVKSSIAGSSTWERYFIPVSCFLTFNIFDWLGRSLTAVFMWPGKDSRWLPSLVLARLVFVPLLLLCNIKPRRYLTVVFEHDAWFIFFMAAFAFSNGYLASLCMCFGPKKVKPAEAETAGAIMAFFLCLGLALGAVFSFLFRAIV

The next experiment deals with Mu-type opioid receptor (Homo sapiens, UniProt P35372).

The AC50 is the concentration giving half of the maximal activity seen. Read a low AC50 as greater potency.
Further: assay procedure not described here.

Cannabinoid receptor 1, sequence (P21554 whole entry): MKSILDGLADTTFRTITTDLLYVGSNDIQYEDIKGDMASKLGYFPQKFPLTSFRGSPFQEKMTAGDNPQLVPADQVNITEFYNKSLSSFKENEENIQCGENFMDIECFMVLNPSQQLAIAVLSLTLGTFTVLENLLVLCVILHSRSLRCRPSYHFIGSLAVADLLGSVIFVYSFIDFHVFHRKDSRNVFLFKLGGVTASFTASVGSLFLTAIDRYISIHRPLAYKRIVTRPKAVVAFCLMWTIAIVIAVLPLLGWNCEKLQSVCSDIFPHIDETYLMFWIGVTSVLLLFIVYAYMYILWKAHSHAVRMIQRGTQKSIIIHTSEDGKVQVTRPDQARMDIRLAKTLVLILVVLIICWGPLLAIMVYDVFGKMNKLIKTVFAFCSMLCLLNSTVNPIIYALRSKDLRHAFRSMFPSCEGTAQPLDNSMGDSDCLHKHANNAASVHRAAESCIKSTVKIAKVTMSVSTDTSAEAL
Motilin receptor, sequence (O43193 whole entry): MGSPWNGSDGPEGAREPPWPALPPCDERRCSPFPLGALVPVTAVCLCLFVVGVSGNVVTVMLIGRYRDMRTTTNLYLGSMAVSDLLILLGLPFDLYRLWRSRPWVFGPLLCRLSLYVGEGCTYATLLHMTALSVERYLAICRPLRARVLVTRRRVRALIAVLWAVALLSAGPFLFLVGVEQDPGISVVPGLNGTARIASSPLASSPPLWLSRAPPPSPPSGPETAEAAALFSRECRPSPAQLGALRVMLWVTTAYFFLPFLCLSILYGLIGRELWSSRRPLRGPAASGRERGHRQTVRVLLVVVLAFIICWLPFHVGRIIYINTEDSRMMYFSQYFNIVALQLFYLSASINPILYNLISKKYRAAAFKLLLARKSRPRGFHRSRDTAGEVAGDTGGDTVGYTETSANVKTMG
Mu-type opioid receptor, sequence (P35372 whole entry): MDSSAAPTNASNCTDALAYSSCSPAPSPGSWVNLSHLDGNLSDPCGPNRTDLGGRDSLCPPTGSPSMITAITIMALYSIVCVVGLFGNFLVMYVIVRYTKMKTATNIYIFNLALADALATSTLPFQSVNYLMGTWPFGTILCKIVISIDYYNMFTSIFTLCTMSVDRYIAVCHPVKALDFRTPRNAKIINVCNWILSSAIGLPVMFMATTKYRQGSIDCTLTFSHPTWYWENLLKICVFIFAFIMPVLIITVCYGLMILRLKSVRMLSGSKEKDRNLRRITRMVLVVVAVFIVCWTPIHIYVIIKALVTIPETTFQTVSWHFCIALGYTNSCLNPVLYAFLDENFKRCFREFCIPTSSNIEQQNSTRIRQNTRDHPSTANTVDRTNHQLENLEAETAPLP
5-hydroxytryptamine receptor 2B, sequence (P41595 whole entry): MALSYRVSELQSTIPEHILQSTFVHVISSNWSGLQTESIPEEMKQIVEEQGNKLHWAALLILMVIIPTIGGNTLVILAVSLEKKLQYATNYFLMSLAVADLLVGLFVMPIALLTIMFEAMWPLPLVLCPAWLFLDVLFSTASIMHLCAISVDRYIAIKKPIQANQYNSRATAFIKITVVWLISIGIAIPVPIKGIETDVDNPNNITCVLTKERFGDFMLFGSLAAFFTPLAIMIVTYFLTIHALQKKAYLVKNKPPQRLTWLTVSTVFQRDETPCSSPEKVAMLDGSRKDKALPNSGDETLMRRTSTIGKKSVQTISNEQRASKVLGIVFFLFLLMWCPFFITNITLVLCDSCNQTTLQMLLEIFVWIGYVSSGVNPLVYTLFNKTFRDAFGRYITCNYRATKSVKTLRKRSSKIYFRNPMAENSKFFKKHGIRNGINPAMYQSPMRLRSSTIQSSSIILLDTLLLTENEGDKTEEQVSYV

`CN(C)[C@@H]1C(O)=C(C(=O)NCN2CCCC2)C(=O)[C@@]2(O)C(O)=C3C(=O)c4c(O)cccc4[C@@](C)(O)[C@H]3C[C@@H]12` [ROLITETRACYCLINE]: the half-maximal activity concentration (AC50) in experiment [1] is more than 10 µM; in experiment [2], more than 10 µM; in experiment [3], more than 10 µM; at Cannabinoid receptor 1 it was more than 30 µM; in experiment [4], more than 10 µM; in experiment [5], more than 30 µM. For the same molecule, the AC50 at Motilin receptor was more than 10 µM; in experiment [6], more than 10 µM; at Mu-type opioid receptor it was more than 30 µM.
